According to patent US10053456B2, “Cyclopropanamine compound and use thereof” (Takeda Pharmaceutical Company Limited, priority 2014, dated 2018):
Counter-ions that a name gives are not always drawn.

Tested on: Gad1 H3K4me2 level in rat primary culture neurons
Assay: Gad1 H3K4 methylation induction activity in rat primary culture neurons (ChIP, quantitative PCR)
Type: cell-based
Settings: Neuron, 72 h, 3 days culture, control without compound = 100%

## Cc1nnc(NC(=O)c2cc([C@@H]3C[C@H]3NC3CCC3)cs2)s1 [Example 118, 4-((1S,2R)-2-(cyclobutylamino)cyclopropyl)-N-(5-methyl-1,3,4-thiadiazol-2-yl)thiophene-2-carboxamide sulfate]
  activity at 10 µM: 233%
